Measurements as given in US8946438B2, “Benzamides, production thereof, and use thereof as medicaments” (Boehringer Ingelheim International GmbH, priority 2008, dated 2015).

Biological target: p38 MAP-kinase (Homo sapiens, UniProt Q16539)
Assay: Enzymatic assay: inhibition of p38 MAP-kinase (phosphorylation of GST-tagged ATF2, chemoluminescence bead readout)
Type: biochemical
Details: inhibitor 1 μM; activated p38 MAP-kinase 1 nM; 4 h preincubation; ATP 100 μM; ATF2 10 nM; read-out: % inhibitory effect at 1 μM
Method: In this, the amount of a substrate phosphorylated by the kinase is quantified. The test is carried out as follows:
The kinase reaction is carried out in the presence of HEPES (20 mM, pH 7), MgCl2 (10 mM), DTT (1 mM) and TWEEN20 (0.01%). First, dimethylsulphoxide or inhibitor (final concentration: 1 μM) dissolved in dimethylsulphoxide are placed in a reaction vessel. Then the activated p38 MAP-kinase (final concentration 1 nM) is added and the mixture is incubated for 4 h at ambient temperature. Then a mixture of substrate (GST-tagged ATF2) and ATP is added and everything is incubated together for a further hour (final concentration ATP: 100 μM; final concentration ATF2: 10 nM).
The concentration of phosphorylated ATF2 is quantified by chemoluminescence-induced light emission. For this, a glutathione donor bead (final concentration: 5 μg/ml) which binds to the gluthathione on the ATF2 and phospho-ATF2 antibodies are added to the reaction mixture (final concentration: 3 nM; this binds the phosphate group added by the kinase reaction) to which a Protein A Acceptor Bead (final concentration: 5 μg/ml) binds. These components are dissolved in a buffer which contains 20 mM HEPES pH 7.0, 200 mM NaCL, 80 mM EDTA as well as 0.3% BSA. This reaction mixture is incubated in the dark for 1 hour at ambient temperature. When these beads come physically close, visible light is emitted which is measured in a photometer at 520-620 nm.
To determine the inhibitory activity of the compounds according to the invention a calculation is made to determine the percentage by which the kinase activity is inhibited at a fixed inhibitor concentration of 1 μM. The maximum activity is determined by non-inhibited kinase. The minimum activity or nonspecific background activity is determined using a reaction mixture without kinase. […] Table 2 summarises the degree of inhibition of the enzyme p38 MAP-kinase—as described hereinbefore—of the compounds according to the invention detailed in the section “Preparation of the final compounds”.

Sequence of p38 MAP-kinase (Q16539 whole entry): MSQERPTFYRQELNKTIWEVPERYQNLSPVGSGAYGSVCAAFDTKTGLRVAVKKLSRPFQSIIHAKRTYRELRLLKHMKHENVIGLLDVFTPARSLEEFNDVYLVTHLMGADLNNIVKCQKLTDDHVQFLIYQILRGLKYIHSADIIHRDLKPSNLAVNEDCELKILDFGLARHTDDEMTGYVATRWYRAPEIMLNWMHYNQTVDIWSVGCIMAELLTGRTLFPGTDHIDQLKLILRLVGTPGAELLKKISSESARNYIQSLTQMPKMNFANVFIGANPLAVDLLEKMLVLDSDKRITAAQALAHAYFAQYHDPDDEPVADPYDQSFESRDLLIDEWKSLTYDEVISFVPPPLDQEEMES

`Cc1ccc(C(=O)Nc2cc(C(C)(C)C)cc(NS(C)(=O)=O)c2OC(C)C)cc1Oc1ccnc(CC2CCNCC2)c1` [5(44), N-(5-tert-butyl-2-isopropoxy-3-methanesulphonylamino-phenyl)-4-methyl-3-(2-piperidin-4-ylmethyl-pyridin-4-yloxy)-benzamide] was tested, and the inhibition at 1 µM was 93.2%.
Compound `COc1c(NC(=O)c2ccc(Cl)c(Oc3ccnc(CN(C)CCN(C)C)n3)c2)cc(C(C)(C)C)cc1NS(C)(=O)=O` [8(36), N-(5-tert-butyl-3-methanesulphonylamino-2-methoxy-phenyl)-4-chloro-3-(2-{[(2-dimethylamino-ethyl)-methyl-amino]-methyl}-pyrimidin-4-yloxy)-benzamide] has an inhibition at 1 µM of 82.6%.
`COc1c(NC(=O)c2ccc(C)c(Oc3ccnc(CC4CCNCC4)c3)c2)cc(C(C)(C)C)cc1NC(=O)C(C)C` [5(47), N-(5-tert-butyl-3-isobutyrylamino-2-methoxy-phenyl)-4-methyl-3-(2-piperidin-4-ylmethyl-pyridin-4-yloxy)-benzamide] gave an inhibition at 1 µM of 97.3%.
Compound `COc1c(NC(=O)c2ccc(Cl)c(Oc3cc(CN(C)CCN(C)C)ncn3)c2)cc(C(C)(C)C)cc1NS(C)(=O)=O` [8(32), N-(5-tert-butyl-3-methanesulphonylamino-2-methoxy-phenyl)-4-chloro-3-(6-{[(2-dimethylamino-ethyl)-methyl-amino]-methyl}-pyrimidin-4-yloxy)-benzamide] has an inhibition at 1 µM of 92.6%.
`COc1c(NC(=O)c2ccc(C)c(Oc3ccnc(CNCCN(C)C)c3)c2)cc(C(C)(C)C)cc1NS(C)(=O)=O` [8(27), N-(5-tert-butyl-3-methanesulphonylamino-2-methoxy-phenyl)-3-{2-[(2-dimethylamino-ethylamino)-methyl]-pyridin-4-yloxy}-4-methyl-benzamide] gave an inhibition at 1 µM of 98.4%.
`COc1c(NC(=O)c2ccc(C)c(Oc3ccnc(CC4CCNCC4)c3)c2)cc(C(C)(C)C)cc1S(C)(=O)=O` [11(3), N-(5-tert-butyl-3-methanesulphonyl-2-methoxy-phenyl)-4-methyl-3-(2-piperidin-4-ylmethyl-pyridin-4-yloxy)-benzamide] gave an inhibition at 1 µM of 99.5%.
`COc1c(NC(=O)c2ccc(C)c(Oc3ccnc(CC4CCNCC4)n3)c2)cc(C(C)(C)C)cc1S(C)(=O)=O` [5(38), N-(5-tert-butyl-3-methanesulphonyl-2-methoxy-phenyl)-4-methyl-3-(2-piperidin-4-ylmethyl-pyrimidin-4-yloxy)-benzamide] was tested, and the inhibition at 1 µM was 98.8%.
`COc1c(NC(=O)c2ccc(C)c(Oc3cc(CC4CCCN(C)CC4)ncn3)c2)cc(C(C)(C)C)cc1NS(C)(=O)=O` (stereo not shown) [12(7), N-(5-tert-butyl-3-methanesulphonylamino-2-methoxy-phenyl)-4-methyl-3-[6-(1-methyl-azepan-4-ylmethyl)-pyrimidin-4-yloxy]-benzamide] was tested, and the inhibition at 1 µM was 99.8%.
For `COc1c(NC(=O)CC(C)C)cc(C(C)(C)C)cc1NC(=O)c1ccc(C)c(Oc2ccnc(CC3CCNCC3)c2)c1` [11(4), N-[5-tert-butyl-2-methoxy-3-(3-methyl-butyrylamino)-phenyl]-4-methyl-3-(2-piperidin-4-ylmethyl-pyridin-4-yloxy)-benzamide], the inhibition at 1 µM was 95.1%.
Compound `COc1c(NC(=O)c2ccc(C)c(Oc3cc(NC4CCNC4)ncn3)c2)cc(C(C)(C)C)cc1NS(C)(=O)=O` (stereo not shown) [5(26), N-(5-tert-butyl-3-methanesulphonylamino-2-methoxy-phenyl)-4-methyl-3-[6-(pyrrolidin-3-ylamino)-pyrimidin-4-yloxy]-benzamide] has an inhibition at 1 µM of 97.6%.
Compound `COc1c(NC(=O)c2ccc(C)c(Oc3cc(CC4CCNCC4)ncn3)c2)cc(C(C)(C)C)cc1NS(C)(=O)=O` [5(18), N-(5-tert-butyl-3-methanesulphonylamino-2-methoxy-phenyl)-4-methyl-3-(6-piperidin-4-ylmethyl-pyrimidin-4-yloxy)-benzamide] has an inhibition at 1 µM of 98.7%.
`COc1c(NC(=O)c2ccc(C)c(Oc3cc(NCCN(C)C)ncn3)c2)cc(C(C)(C)C)cc1NS(C)(=O)=O` [4(2), N-(5-tert-butyl-3-methanesulphonylamino-2-methoxy-phenyl)-3-[6-(2-dimethylamino-ethylamino)-pyrimidin-4-yloxy]-4-methyl-benzamide] showed an inhibition at 1 µM of 94.8%.
Compound `COc1c(NC(=O)c2ccc(C)c(Oc3ccnc(CC4CCNCC4)c3)c2)cc(C(C)(C)C)cc1[S+](C)[O-]` (stereo not shown) [5(48), N-(5-tert-butyl-3-methanesulphinyl-2-methoxy-phenyl)-4-methyl-3-(2-piperidin-4-ylmethyl-pyridin-4-yloxy)-benzamide] has an inhibition at 1 µM of 99.4%.
In the case of `COc1c(NC(=O)c2ccc(C)c(Oc3ccnc(CN4CCNC(=O)C4)n3)c2)cc(C(C)(C)C)cc1NS(C)(=O)=O` [8(5), N-(5-tert-butyl-3-methanesulphonylamino-2-methoxy-phenyl)-4-methyl-3-[2-(3-oxo-piperazin-1-ylmethyl)-pyrimidin-4-yloxy]-benzamide], the inhibition at 1 µM is reported as 95.8%.
`COc1c(NC(=O)c2ccc(Cl)c(Oc3ccnc(CC4CCNCC4)n3)c2)cc(C(C)(C)C)cc1NS(C)(=O)=O` [5(30), N-(5-tert-butyl-3-methanesulphonylamino-2-methoxy-phenyl)-4-chloro-3-(2-piperidin-4-ylmethyl-pyrimidin-4-yloxy)-benzamide] gave an inhibition at 1 µM of 99%.
With `COc1c(NC(=O)c2ccc(C)c(Oc3cc(CN4CCNCC4)ncn3)c2)cc(C(C)(C)C)cc1NS(C)(=O)=O` [5(7), N-(5-tert-butyl-3-methanesulphonylamino-2-methoxy-phenyl)-4-methyl-3-(6-piperazin-1-ylmethyl-pyrimidin-4-yloxy)-benzamide] the inhibition at 1 µM was 97.8%.
With `CNCc1cc(Oc2cc(C(=O)Nc3cc(C(C)(C)C)cc(NS(C)(=O)=O)c3OC)ccc2C)ccn1` [8(14), N-(5-tert-butyl-3-methanesulphonylamino-2-methoxy-phenyl)-4-methyl-3-(2-methylaminomethyl-pyridin-4-yloxy)-benzamide] the inhibition at 1 µM was 91.1%.
Work on `COc1c(NC(=O)c2ccc(C)c(Oc3ccnc(CN4CCNCC4)n3)c2)cc(C(C)(C)C)cc1NS(C)(=O)=O` [5(6), N-(5-tert-butyl-3-methanesulphonylamino-2-methoxy-phenyl)-4-methyl-3-(2-piperazin-1-ylmethyl-pyrimidin-4-yloxy)-benzamide] yielded an inhibition at 1 µM of 98.3%.
For `COc1c(NC(=O)c2ccc(Cl)c(Oc3cc(CC4CCN(C)CC4)ncn3)c2)cc(C(C)(C)C)cc1NS(C)(=O)=O` [12(2), N-(5-tert-butyl-3-methanesulphonylamino-2-methoxy-phenyl)-4-chloro-3-[6-(1-methyl-piperidin-4-ylmethyl)-pyrimidin-4-yloxy]-benzamide], the inhibition at 1 µM was 98.7%.
For `COc1c(NC(=O)c2ccc(Cl)c(Oc3ccnc(CN4CCNCC4)c3)c2)cc(C(C)(C)C)cc1NS(C)(=O)=O` [5(34), N-(5-tert-butyl-3-methanesulphonylamino-2-methoxy-phenyl)-4-chloro-3-(2-piperazin-1-ylmethyl-pyridin-4-yloxy)-benzamide], the inhibition at 1 µM was 99.1%.
For `COc1c(NC(=O)c2ccc(C)c(Oc3cc(N(C)C4CCN(C)C4)ncn3)c2)cc(C(C)(C)C)cc1NS(C)(=O)=O` (stereo not shown) [4(20), N-(5-tert-butyl-3-methanesulphonylamino-2-methoxy-phenyl)-4-methyl-3-{6-[methyl-(1-methyl-pyrrolidin-3-yl)-amino]-pyrimidin-4-yloxy}-benzamide], the inhibition at 1 µM was 95.6%.
With `COc1c(NC(=O)c2ccc(C)c(Oc3ccnc(CN4CCOCC4)c3)c2)cc(C(C)(C)C)cc1NS(C)(=O)=O` [8(9), N-(5-tert-butyl-3-methanesulphonylamino-2-methoxy-phenyl)-4-methyl-3-(2-morpholin-4-ylmethyl-pyridin-4-yloxy)-benzamide] the inhibition at 1 µM was 98.4%.
Work on `COc1c(NC(=O)c2ccc(C)c(Oc3ccnc(CC4CCN(C)CC4)n3)c2)cc(C(C)(C)C)cc1NS(C)(=O)=O` [9(1), N-(5-tert-butyl-3-methanesulphonylamino-2-methoxy-phenyl)-4-methyl-3-[2-(1-methyl-piperidin-4-ylmethyl)-pyrimidin-4-yloxy]-benzamide] yielded an inhibition at 1 µM of 99.9%.
With `COc1c(NC(=O)c2ccc(Cl)c(Oc3ccnc(CN4CCNCC4)n3)c2)cc(C(C)(C)C)cc1NS(C)(=O)=O` [5(35), N-(5-tert-butyl-3-methanesulphonylamino-2-methoxy-phenyl)-4-chloro-3-(2-piperazin-1-ylmethyl-pyrimidin-4-yloxy)-benzamide] the inhibition at 1 µM was 98.3%.
For `COc1c(NC(=O)c2ccc(Cl)c(Oc3ccnc(CNCCN(C)C)c3)c2)cc(C(C)(C)C)cc1NS(C)(=O)=O` [8(34), N-(5-tert-butyl-3-methanesulphonylamino-2-methoxy-phenyl)-4-chloro-3-{2-[(2-dimethylamino-ethylamino)-methyl]-pyridin-4-yloxy}-benzamide], the inhibition at 1 µM was 99.3%.
